The OligoGym collection
“And” between values parts separate entries of the source, which are not always exact repeats. Equal entries are not always repeated. After the bases stand the sugars from the 5' end (letter, count) and the backbone: PS all phosphorothioate, else s phosphorothioate and o phosphodiester by linkage. Methylation of C is not given here. e = 2'-O-(2-methoxyethyl) (MOE); k = constrained ethyl (cEt); d = 2'-deoxy (DNA)

Target: IRF5
Settings: ASO

## CCAATTTTGCATTCCA (sugars kkddddddddddkeke, PS)
KARPAS-229, 0.44444 µM
  target mRNA inhibition: 47%
KARPAS-229, 1.33333 µM
  target mRNA inhibition: 66%
KARPAS-229, 4 µM
  target mRNA inhibition: 75% and 57%
KARPAS-229, 12 µM
  target mRNA inhibition: 82%

## CCAATTTTGCATTCCA (sugars kkdddddddddkekek, PS)
KARPAS-229, 4 µM
  target mRNA inhibition: 11%

## CCACTGTGTACCCCAT (sugars k3 d9 k3 e1, PS)
KARPAS-229, 4 µM
  target mRNA inhibition: 57%

## CCACTGTGTACCCCAT (sugars kkddddddddddkeke, PS)
KARPAS-229, 4 µM
  target mRNA inhibition: 19%

## CCACTGTGTACCCCAT (sugars kkdddddddddkdkdk, PS)
KARPAS-229, 4 µM
  target mRNA inhibition: 54%

## CCCAATGCAACATCCA (sugars kdddddddddkekeke, PS)
KARPAS-229, 4 µM
  target mRNA inhibition: 0%

## CCCAATGCAACATCCA (sugars kkdddddddddkekek, PS)
KARPAS-229, 4 µM
  target mRNA inhibition: 0%

## CCCAATGCAACATCCA (sugars kkddddddddkekekk, PS)
KARPAS-229, 4 µM
  target mRNA inhibition: 0%

## CCCAATGCAACATCCA (sugars kkkddddddddkekek, PS)
KARPAS-229, 4 µM
  target mRNA inhibition: 0%

## CCTCATGAGTAATAGG (sugars k3 d10 k3, PS)
KARPAS-229, 4 µM
  target mRNA inhibition: 0%

## CCTTCTGCAGGGAGTC (sugars kkdddddddddkekek, PS)
KARPAS-229, 4 µM
  target mRNA inhibition: 0%

## CCTTCTGCAGGGAGTC (sugars kkkdddddddddkeke, PS)
KARPAS-229, 4 µM
  target mRNA inhibition: 1%

## CCTTCTGCAGGGAGTC (sugars kkkddddddddkdkdk, PS)
KARPAS-229, 4 µM
  target mRNA inhibition: 0%

## CGGTCTTTGAGGTCTG (sugars kdddddddddkekeke, PS)
KARPAS-229, 4 µM
  target mRNA inhibition: 40%

## CGGTCTTTGAGGTCTG (sugars kkkdddddddddkeke, PS)
KARPAS-229, 4 µM
  target mRNA inhibition: 38%

## CTAAACCATTCTATGC (sugars k3 d10 k3, PS)
KARPAS-229, 4 µM
  target mRNA inhibition: 0%

## CTGACACAGGCGGATG (sugars kddddddddddkekek, PS)
KARPAS-229, 4 µM
  target mRNA inhibition: 0%

## CTGTCACATCTCCACA (sugars k2 d9 e3 k2, PS)
KARPAS-229, 4 µM
  target mRNA inhibition: 10%

## CTGTCACATCTCCACA (sugars kkddddddddddkeke, PS)
KARPAS-229, 4 µM
  target mRNA inhibition: 19%

## CTGTCACATCTCCACA (sugars kkdddddddddkdkdk, PS)
KARPAS-229, 4 µM
  target mRNA inhibition: 6%

## CTTCTGCAGGGAGTCA (sugars k3 d10 k3, PS)
KARPAS-229, 4 µM
  target mRNA inhibition: 0%

## CTTGGTCTTGACCTCC (sugars kkkdddddddddkeke, PS)
KARPAS-229, 4 µM
  target mRNA inhibition: 15%

## CTTTCTTGTCTAGTGT (sugars k3 d10 k3, PS)
KARPAS-229, 4 µM
  target mRNA inhibition: 48%

## GAAGTGAGTCTCAAAC (sugars kddddddddddkekek, PS)
KARPAS-229, 4 µM
  target mRNA inhibition: 44%

## GAAGTGAGTCTCAAAC (sugars kkddddddddkekekk, PS)
KARPAS-229, 4 µM
  target mRNA inhibition: 27%

## GAGTCATGGGCTGAGG (sugars kdddddddddkekeke, PS)
KARPAS-229, 4 µM
  target mRNA inhibition: 0%

## GAGTCATGGGCTGAGG (sugars kkddddddddkekekk, PS)
KARPAS-229, 4 µM
  target mRNA inhibition: 0%

## GAGTCTCAAACCAGGG (sugars kddddddddddkekek, PS)
KARPAS-229, 4 µM
  target mRNA inhibition: 0%

## GATGGTGTTATCTCCG (sugars k2 d8 e4 k2, PS)
KARPAS-229, 4 µM
  target mRNA inhibition: 0%

## GATGGTGTTATCTCCG (sugars k3 d9 k3 e1, PS)
KARPAS-229, 4 µM
  target mRNA inhibition: 0%

## GATGGTGTTATCTCCG (sugars kkdddddddddkdkdk, PS)
KARPAS-229, 4 µM
  target mRNA inhibition: 0%

## GATGGTGTTATCTCCG (sugars kkdddddddddkekek, PS)
KARPAS-229, 4 µM
  target mRNA inhibition: 0%

## GCACTGACACAGGCGG (sugars k3 d10 k3, PS)
KARPAS-229, 4 µM
  target mRNA inhibition: 14% and 0%

## GCACTGACACAGGCGG (sugars kdddddddddkekeke, PS)
KARPAS-229, 4 µM
  target mRNA inhibition: 0%

## GCACTGACACAGGCGG (sugars kkddddddddkekekk, PS)
KARPAS-229, 4 µM
  target mRNA inhibition: 0%

## GCTGTCACATCTCCAC (sugars kddddddddddkekek, PS)
KARPAS-229, 4 µM
  target mRNA inhibition: 17%

## GCTGTCACATCTCCAC (sugars kkddddddddkekekk, PS)
KARPAS-229, 4 µM
  target mRNA inhibition: 29%

## GCTGTCACATCTCCAC (sugars kkkdddddddddkeke, PS)
KARPAS-229, 4 µM
  target mRNA inhibition: 3%

## GCTGTCACATCTCCAC (sugars kkkddddddddkdkdk, PS)
KARPAS-229, 4 µM
  target mRNA inhibition: 35%

## GCTTGGTCTTGACCTC (sugars k2 d9 e3 k2, PS)
KARPAS-229, 4 µM
  target mRNA inhibition: 10%

## GCTTGGTCTTGACCTC (sugars kekdddddddddeekk, PS)
KARPAS-229, 4 µM
  target mRNA inhibition: 46%

## GCTTGGTCTTGACCTC (sugars kkdddddddddkekek, PS)
KARPAS-229, 4 µM
  target mRNA inhibition: 33%

## GCTTGGTCTTGACCTC (sugars kkddddddddkekekk, PS)
KARPAS-229, 4 µM
  target mRNA inhibition: 21%

## GGAAGTGAGTCTCAAA (sugars k2 d9 e3 k2, PS)
KARPAS-229, 4 µM
  target mRNA inhibition: 32%

## GGAAGTGAGTCTCAAA (sugars k3 d9 k3 e1, PS)
KARPAS-229, 0.44444 µM
  target mRNA inhibition: 21%
KARPAS-229, 1.33333 µM
  target mRNA inhibition: 13%
KARPAS-229, 4 µM
  target mRNA inhibition: 49% and 71%
KARPAS-229, 12 µM
  target mRNA inhibition: 76%

## GGAAGTGAGTCTCAAA (sugars kkddddddddkekekk, PS)
KARPAS-229, 4 µM
  target mRNA inhibition: 36%

## GGACGAGTTATGGGAA (sugars k3 d10 k3, PS)
KARPAS-229, 4 µM
  target mRNA inhibition: 37%

## GGAGTGAGACGAGCAA (sugars k3 d9 k3 e1, PS)
KARPAS-229, 4 µM
  target mRNA inhibition: 33%

## GGAGTGAGACGAGCAA (sugars kkddddddddddkeke, PS)
KARPAS-229, 4 µM
  target mRNA inhibition: 33%

## GGAGTGAGACGAGCAA (sugars kkdddddddddkdkdk, PS)
KARPAS-229, 4 µM
  target mRNA inhibition: 16%

## GGAGTGAGACGAGCAA (sugars kkddddddddkekekk, PS)
KARPAS-229, 4 µM
  target mRNA inhibition: 38%

## GGGCACAGCGCAGGTT (sugars kkddddddddkekekk, PS)
KARPAS-229, 0.44444 µM
  target mRNA inhibition: 15%
KARPAS-229, 1.33333 µM
  target mRNA inhibition: 32%
KARPAS-229, 4 µM
  target mRNA inhibition: 61% and 66%
KARPAS-229, 12 µM
  target mRNA inhibition: 76%

## GGGCACAGCGCCAGGTT (sugars kddddddddddkekekd, PS)
KARPAS-229, 0.44444 µM
  target mRNA inhibition: 23%
KARPAS-229, 1.33333 µM
  target mRNA inhibition: 40%
KARPAS-229, 4 µM
  target mRNA inhibition: 37% and 62%
KARPAS-229, 12 µM
  target mRNA inhibition: 87%

## GGTCTGGCCCTTTTGG (sugars kekdddddddddeekk, PS)
KARPAS-229, 4 µM
  target mRNA inhibition: 13%

## GGTCTGGCCCTTTTGG (sugars kkdddddddddkekek, PS)
KARPAS-229, 4 µM
  target mRNA inhibition: 3%

## GGTCTGGCCCTTTTGG (sugars kkddddddddkekekk, PS)
KARPAS-229, 4 µM
  target mRNA inhibition: 0%

## GGTCTGGCCCTTTTGG (sugars kkkddddddddkdkdk, PS)
KARPAS-229, 4 µM
  target mRNA inhibition: 0%

## GGTCTTGACCTCCCGC (sugars kkkddddddddkdkdk, PS)
KARPAS-229, 4 µM
  target mRNA inhibition: 4%

## GGTCTTGACCTCCCGC (sugars kkkddddddddkekek, PS)
KARPAS-229, 4 µM
  target mRNA inhibition: 29%

## GGTCTTTGAGGTCTGG (sugars k2 d9 e3 k2, PS)
KARPAS-229, 0.44444 µM
  target mRNA inhibition: 22%
KARPAS-229, 1.33333 µM
  target mRNA inhibition: 58%
KARPAS-229, 4 µM
  target mRNA inhibition: 74% and 69%
KARPAS-229, 12 µM
  target mRNA inhibition: 79%

## GGTCTTTGAGGTCTGG (sugars kkddddddddddkeke, PS)
KARPAS-229, 0.44444 µM
  target mRNA inhibition: 39%
KARPAS-229, 1.33333 µM
  target mRNA inhibition: 43%
KARPAS-229, 4 µM
  target mRNA inhibition: 67% and 63%
KARPAS-229, 12 µM
  target mRNA inhibition: 72%

## GGTGTATTTCCCTGTC (sugars kddddddddddkekek, PS)
KARPAS-229, 4 µM
  target mRNA inhibition: 0%

## GGTGTATTTCCCTGTC (sugars kekdddddddddeekk, PS)
KARPAS-229, 4 µM
  target mRNA inhibition: 5%

## GGTGTATTTCCCTGTC (sugars kkdddddddddkekek, PS)
KARPAS-229, 4 µM
  target mRNA inhibition: 26%

## GGTGTATTTCCCTGTC (sugars kkkddddddddkdkdk, PS)
KARPAS-229, 4 µM
  target mRNA inhibition: 1%

## GGTGTATTTCCCTGTC (sugars kkkddddddddkekek, PS)
KARPAS-229, 4 µM
  target mRNA inhibition: 0%

## GGTTCTTGGACTCTCA (sugars kddddddddddkekek, PS)
KARPAS-229, 4 µM
  target mRNA inhibition: 9%

## GGTTCTTGGACTCTCA (sugars kdddddddddkekeke, PS)
KARPAS-229, 4 µM
  target mRNA inhibition: 0%
